Earlier results in patent publication US20150209327A1, “METHODS FOR THE TREATMENT OF OBESITY USING APREMILAST” (Celgene Corporation, priority 2014, published 2015).

Conditions: treatment of COPD; cited from earlier work

O=C(Nc1c(Cl)cncc1Cl)c1ccc(OC(F)F)c(OCC2CC2)c1 [roflumilast]
weight change as a side effect: Weight decrease was observed
